Data: DBAASP
In brackets after ≈: the same amount, converted by molar mass.

Legend:
Test in all cases: ≥ marks a high value that may be exact or a test limit, other limits are often not marked, values filed in µg/mL are converted to µM
[1] = tested on: Pseudomonas aeruginosa PAO1
[2] = tested on: Streptococcus pyogenes M1T1 5448
Escherichia coli BL21 = tested on: Escherichia coli BL21
[3] = tested on: Staphylococcus aureus USA 300
[4] = tested on: Candida albicans NCYC 1467
[5] = tested on: Staphylococcus aureus NCTC 10788
[6] = tested on: Staphylococcus aureus ATCC 43300
[7] = tested on: Escherichia coli NCTC 10418
[8] = tested on: Staphylococcus aureus NCTC 12493
[9] = tested on: Pseudomonas aeruginosa ATCC 27853
Bacillus anthracis = tested on: Bacillus anthracis
Staphylococcus aureus = tested on: Staphylococcus aureus
Escherichia coli = tested on: Escherichia coli
Bacillus cereus = tested on: Bacillus cereus

Row | MIC [1] [µM] | MIC [2] [µM] | MIC (Escherichia coli BL21) [µM] | Compound | MIC (Bacillus anthracis) [µM] | MIC (Staphylococcus aureus) [µM] | MIC (Escherichia coli) [µM] | MIC (Bacillus cereus) [µM] | also measured
1 | 128 (≈ 385 µg/mL) | 4 (≈ 12 µg/mL) | 16 (≈ 48.1 µg/mL) | CC[C@H](C)[C@H](NC(=O)[C@H](Cc1ccccc1)NC(=O)[C@H](C)NC(=O)[C@H](CCCCN)NC(=O)[C@H](CCCCN)NC(=O)CNC(=O)[C@H](CCCN=C(N)N)NC(=O)[C@H](CCCCN)NC(=O)[C@H](CCCN=C(N)N)NC(=O)[C@H](CC(C)C)NC(=O)[C@H](Cc1ccc(O)cc1)NC(=O)[C@H](CCC(=O)O)NC(=O)[C@H](CCCCN)NC(=O)[C@H](CC(C)C)NC(=O)[C@H](CCC(=O)O)NC(=O)[C@H](CC(C)C)NC(=O)[C@@H](NC(=O)[C@H](CC(C)C)NC(=O)[C@H](CCCCN)NC(=O)[C@H](CCC(N)=O)NC(=O)[C@H](CCCN=C(N)N)NC(=O)CNC(=O)[C@H](C)N)[C@@H](C)O)C(=O)N[C@@H](C)C(=O)N[C@@H](Cc1c[nH]c2ccccc12)C(=O)O [AGRQKLTLELKEYLRKRGKKAFIAW] | – | – | – | – | –
2 | 16 (≈ 48 µg/mL) | 8 (≈ 24 µg/mL) | 8 (≈ 24 µg/mL) | CC[C@H](C)[C@H](NC(=O)[C@H](CCC(=O)O)NC(=O)[C@H](CCCN=C(N)N)NC(=O)[C@H](CCCN=C(N)N)NC(=O)[C@H](CC(C)C)NC(=O)[C@H](Cc1ccc(O)cc1)NC(=O)[C@H](C)NC(=O)[C@H](CCCCN)NC(=O)[C@@H](NC(=O)[C@@H](NC(=O)[C@H](CCC(N)=O)NC(=O)[C@H](CCCN=C(N)N)NC(=O)CNC(=O)[C@H](C)N)[C@@H](C)O)[C@@H](C)CC)C(=O)N[C@@H](CCCN=C(N)N)C(=O)N[C@@H](CCCCN)C(=O)N[C@@H](CCCN=C(N)N)C(=O)NCC(=O)N[C@@H](CCCN=C(N)N)C(=O)N[C@@H](CCCCN)C(=O)N[C@@H](C)C(=O)N[C@H](C(=O)N[C@H](C(=O)N[C@@H](C)C(=O)N[C@@H](Cc1c[nH]c2ccccc12)C(=O)O)[C@@H](C)CC)C(C)C [AGRQTIKAYLRREIRKRGRKAVIAW] | – | – | – | – | –
3 | 16 (≈ 49.3 µg/mL) | 4 (≈ 12.3 µg/mL) | 2 (≈ 6.17 µg/mL) | CC[C@H](C)[C@H](NC(=O)[C@H](Cc1c[nH]c2ccccc12)NC(=O)[C@H](CCC(N)=O)NC(=O)[C@H](CCCN=C(N)N)NC(=O)CNC(=O)[C@H](C)N)C(=O)N[C@@H](C)C(=O)N[C@@H](CCCCN)C(=O)N[C@@H](Cc1ccc(O)cc1)C(=O)N[C@@H](CC(C)C)C(=O)N[C@@H](CCCN=C(N)N)C(=O)N[C@@H](CCCN=C(N)N)C(=O)N[C@@H](CCC(=O)O)C(=O)N[C@H](C(=O)N[C@@H](CCCN=C(N)N)C(=O)N[C@@H](CCCCN)C(=O)N[C@@H](CCCN=C(N)N)C(=O)NCC(=O)N[C@@H](CCCN=C(N)N)C(=O)N[C@@H](CCCCN)C(=O)N[C@@H](C)C(=O)N[C@H](C(=O)N[C@H](C(=O)N[C@@H](C)C(=O)N[C@@H](Cc1c[nH]c2ccccc12)C(=O)O)[C@@H](C)CC)C(C)C)[C@@H](C)CC [AGRQWIAKYLRREIRKRGRKAVIAW] | – | – | – | – | MIC [3]: ≥ 128 µM
4 | 8 (≈ 24.4 µg/mL) | 0.5 (≈ 1.53 µg/mL) | 0.25 (≈ 0.764 µg/mL) | CC[C@H](C)[C@H](NC(=O)[C@H](CCCN=C(N)N)NC(=O)CNC(=O)[C@@H](NC(=O)[C@H](CCCCN)NC(=O)[C@H](CCCN=C(N)N)NC(=O)[C@@H](NC(=O)[C@H](Cc1ccc(O)cc1)NC(=O)[C@H](CCCN=C(N)N)NC(=O)[C@H](CCCN=C(N)N)NC(=O)[C@H](CC(C)C)NC(=O)[C@H](CCC(=O)O)NC(=O)[C@H](CCCCN)NC(=O)[C@H](C)NC(=O)[C@@H](NC(=O)[C@H](CCCN=C(N)N)NC(=O)[C@H](CC(N)=O)NC(=O)[C@@H](NC(=O)[C@H](CCCCN)NC(=O)[C@H](C)N)[C@@H](C)O)[C@@H](C)CC)[C@@H](C)CC)C(C)C)C(=O)N[C@@H](C)C(=O)N[C@@H](CCCN=C(N)N)C(=O)N[C@@H](CCCCN)C(=O)N[C@@H](C)C(=O)N[C@@H](Cc1c[nH]c2ccccc12)C(=O)O [AKTNRIAKELRRYIRKVGRIARKAW] | – | – | – | – | –
5 | – | – | – | CSCC[C@H](NC(=O)[C@H](CC(=O)O)NC(=O)[C@@H](NC(=O)[C@@H](NC(=O)[C@H](C)NC(=O)[C@H](CC(N)=O)NC(=O)[C@H](CC(C)C)NC(=O)[C@@H](NC(=O)[C@H](C)NC(=O)[C@H](CCCCN)NC(=O)CNC(=O)[C@H](C)NC(=O)[C@H](C)NC(=O)[C@H](CCCCN)NC(=O)CNC(=O)[C@@H](NC(=O)[C@H](CC(N)=O)NC(=O)[C@H](CCCCN)NC(=O)[C@H](CC(C)C)NC(=O)[C@H](CC(C)C)NC(=O)[C@@H](NC(=O)[C@H](CCCCN)NC(=O)[C@H](Cc1c[nH]c2ccccc12)NC(=O)[C@H](CC(C)C)NC(=O)[C@H](C)N)[C@@H](C)O)C(C)C)C(C)C)C(C)C)[C@@H](C)O)C(=O)N[C@H](C(=O)N[C@@H](CC(N)=O)C(=O)N[C@@H](CCC(N)=O)C(N)=O)C(C)C [ALWKTLLKNVGKAAGKAVLNAVTDMVNQ] | – | – | – | – | MIC [4]: 5.42 µM (≈ 16 µg/mL); MIC [5]: 2.71 µM (≈ 8 µg/mL); MIC [6]: 2.71 µM (≈ 8 µg/mL); MIC [7]: 2.71 µM (≈ 8 µg/mL); MIC [8]: 5.42 µM (≈ 16 µg/mL); MIC [9]: 5.42 µM (≈ 16 µg/mL)
6 | – | – | – | CC(C)C[C@H](NC(=O)[C@H](CO)NC(=O)[C@H](CC(C)C)NC(=O)[C@H](Cc1ccccc1)NC(=O)[C@@H](NC(=O)[C@H](CO)NC(=O)[C@H](CO)NC(=O)[C@H](CCCN=C(N)N)NC(=O)[C@H](Cc1ccccc1)NC(=O)[C@@H](NC(=O)[C@@H](NC(=O)[C@@H]1CCCN1C(=O)[C@H](CO)NC(=O)[C@H](C)N)[C@@H](C)O)C(C)C)C(C)C)C(=O)N[C@@H](Cc1ccccc1)C(=O)N[C@H](C(=O)N[C@H](C(=O)N[C@@H](C)C(=O)N[C@@H](CCCCN)C(=O)N[C@@H](CCCCN)C(=O)O)C(C)C)C(C)C [ASPTVFRSSVFLSLFVVAKK] | ≥ 117 | > 117 | > 117 | ≥ 117 | –
7 | – | – | – | CC(C)C[C@H](NC(=O)CNC(=O)[C@H](Cc1ccccc1)NC(=O)[C@H](CC(C)C)NC(=O)[C@@H](N)Cc1ccccc1)C(=O)N[C@@H](C)C(=O)N[C@@H](CO)C(=O)N[C@@H](CCCCN)C(=O)N[C@H](C(=O)N[C@@H](Cc1ccccc1)C(=O)N1CCC[C@H]1C(=O)N[C@@H](C)C(=O)N[C@H](C(=O)N[C@@H](Cc1ccc(O)cc1)C(=O)N[C@@H](CS)C(=O)N[C@@H](CCCCN)C(=O)N[C@H](C(=O)N[C@H](C(=O)N[C@@H](CCCN=C(N)N)C(=O)N[C@@H](CCCCN)C(=O)O)[C@@H](C)O)C(C)C)C(C)C)C(C)C [FLFGLASKVFPAVYCKVTRK] | ≥ 56.3 | 113 (≈ 256 µg/mL) | 28.1 (≈ 64 µg/mL) | ≥ 113 | –
8 | – | – | – | CC[C@H](C)[C@H](NC(=O)[C@H](CC(C)C)NC(=O)[C@H](C)NC(=O)[C@@H]1CCCN1C(=O)[C@H](Cc1ccccc1)NC(=O)[C@@H](NC(=O)[C@H](CCCCN)NC(=O)[C@H](CO)NC(=O)[C@H](C)NC(=O)[C@@H](NC(=O)[C@H](CCCN=C(N)N)NC(=O)[C@H](Cc1ccccc1)NC(=O)[C@H](CC(C)C)NC(=O)[C@@H](N)Cc1ccccc1)C(C)C)C(C)C)C(=O)NCC(=O)N[C@@H](CCCCN)C(=O)N[C@@H](Cc1ccccc1)C(=O)N[C@@H](CCCCN)C(=O)N[C@@H](CCCCN)C(=O)N[C@@H](CCCCN)C(=O)O [FLFRVASKVFPALIGKFKKK] | 6.88 (≈ 16 µg/mL) | 6.88 (≈ 16 µg/mL) | 27.5 (≈ 64 µg/mL) | 6.88 (≈ 16 µg/mL) | –
9 | – | – | – | CC(C)C[C@H](NC(=O)[C@H](CCCN=C(N)N)NC(=O)[C@H](CC(N)=O)NC(=O)[C@H](CC(C)C)NC(=O)[C@@H](N)CCCCN)C(=O)N[C@@H](CCCCN)C(=O)N[C@@H](CCC(=O)O)C(=O)N[C@@H](CCCCN)C(=O)N[C@@H](CC(N)=O)C(=O)N[C@@H](CCCCN)C(=O)N[C@@H](C)C(=O)N[C@@H](CCCCN)C(=O)N[C@@H](CC(N)=O)C(=O)N[C@@H](CO)C(=O)N[C@@H](CCCCN)C(=O)N[C@@H](CCC(=O)O)C(=O)N[C@@H](CC(N)=O)C(=O)N[C@@H](CC(N)=O)C(=O)O [KLNRLKEKNKAKNSKENN] | – | – | – | – | MIC [4]: ≥ 237 µM; MIC [5]: ≥ 237 µM; MIC [7]: ≥ 237 µM; MIC [9]: > 237 µM
10 | – | – | – | CC[C@H](C)[C@H](NC(=O)[C@@H](NC(=O)[C@H](C)NC(=O)[C@@H]1CCCN1C(=O)[C@H](Cc1ccccc1)NC(=O)[C@@H](NC(=O)[C@H](CCCCN)NC(=O)[C@H](CO)NC(=O)[C@H](C)NC(=O)[C@@H](NC(=O)[C@H](CCCN=C(N)N)NC(=O)[C@H](Cc1ccccc1)NC(=O)[C@H](CC(C)C)NC(=O)[C@H](C)NC(=O)CNC(=O)[C@@H](N)CC(C)C)C(C)C)C(C)C)C(C)C)C(=O)N[C@@H](CO)C(=O)N[C@@H](CCSC)C(=O)N[C@H](C(=O)N[C@@H](CCCCN)C(=O)O)C(C)C [LGALFRVASKVFPAVISMVK] | 30 (≈ 64 µg/mL) | 30 (≈ 64 µg/mL) | 120 (≈ 256 µg/mL) | 30 (≈ 64 µg/mL) | –
11 | > 128 | 0.25 (≈ 0.766 µg/mL) | 16 (≈ 49 µg/mL) | CC[C@H](C)[C@H](NC(=O)[C@H](CCCN=C(N)N)NC(=O)[C@H](C)NC(=O)[C@H](CCCCN)NC(=O)[C@H](CCCCN)NC(=O)CNC(=O)[C@H](Cc1ccccc1)NC(=O)[C@H](CCCCN)NC(=O)[C@H](CCCN=C(N)N)NC(=O)[C@H](CC(C)C)NC(=O)[C@H](CCC(=O)O)NC(=O)[C@H](CCC(=O)O)NC(=O)[C@H](CCCCN)NC(=O)[C@H](CC(C)C)NC(=O)[C@H](Cc1ccc(O)cc1)NC(=O)[C@H](CC(C)C)NC(=O)[C@@H](NC(=O)[C@H](CC(C)C)NC(=O)[C@H](C)NC(=O)[C@H](CCC(N)=O)NC(=O)[C@H](CCCN=C(N)N)NC(=O)CNC(=O)[C@@H](N)Cc1c[nH]c2ccccc12)[C@@H](C)O)C(=O)N[C@@H](C)C(=O)N[C@@H](Cc1c[nH]c2ccccc12)C(=O)O [WGRQALTLYLKEELRKFGKKARIAW] | – | – | – | – | –
